{
  "source": "patent US20250295619A1",
  "about": "“Use of Salvianolic Acid E in the Preparation of Drugs Targeting Senescent Cells, Inhibiting Tumors or Extending Lifespan” (Shanghai Institute of Nutrition and Health, Chinese Academy …, priority 2024, published 2025)",
  "assay_type_in_all_cases": "cell-based, human",
  "key": {"[1]": {"tested_on": "PSC27", "assay": "SA-β-Gal staining of PSC27 cells (bleomycin-induced senescence, increasing SAE concentration)", "experimental": "The P value of positive proportion of cells in these experimental groups for SAE at the concentrations of 100 μM, 200 μM, 400 μM, 800 μM, 1600 μM, 2000 μM and 3000 μM are statistically significant compared with the data at 0 μM.\n(§1) To cause cell damage, 50 μg/mL bleomycin (bleomycin, BLEO) was added to the culture medium when PSC27 cells grew to 80% (abbreviated as PSC27-CTRL). After 12 hours of drug treatment, the cells were simply washed 3 times with PBS, left in the culture medium for 7-10 days, and then the subsequent experiments were performed.\nSenescence-associated B-galactosidase (SA-β-Gal) staining was performed following a previously reported procedure (Debacq-Chainiaux, et. al., 2009). Briefly, cells in culture dishes were washed with PBS and fixed at room temperature. Cells were fixed in 2% formaldehyde and 0.2% glutaraldehyde for 3 minutes. SA-β-Gal was used for staining with freshly prepared staining solution overnight at 37° C. Images were taken on the next day and the percentage of positive cells per unit area was calculated."}, "[2]": {"tested_on": "SASP", "assay": "qRT-PCR of typical SASP molecules in BLEO-induced senescent PSC27 cells at different SAE concentrations", "experimental": "All data are normalized results compared to the CTRL group. *P<0.05, **P<0.01, ***P<0.001.\nas §1\nTotal RNA of cells in the growth phase or stasis phase was extracted with Trizol reagent. 1 mL Trizol was added to each T25 culture flask. The cell layer was scraped off with a cell scraper, transferred into a centrifuge tube and mixed well until not viscous. […]\nSamples were loaded according to the above standard, and the reaction conditions were: 95° C. pre-denaturation for 15 seconds, then 95° C. for 5 seconds, 60° C. for 31 seconds, 40 cycles; melting curve conditions were 95° C. for 15 seconds, 60° C. for 30 seconds, 95° C. for 15 seconds. […] After the reaction was completed, the amplification of each gene was checked by software analysis, the corresponding threshold cycle number was derived, and the relative expression of each gene was calculated using the 2-ΔΔCt method. The peak and waveform of the melting curve was analyzed to determine whether the obtained amplification product was a specific single target fragment."}, "[3]": {"tested_on": "PSC27", "assay": "Flow cytometry apoptosis of PSC27", "conditions": "SAE", "text": "Q2, distribution area of early apoptotic cells; Q3, distribution area of late apoptotic cells."}},
  "data": [
    {"smiles": "O=C(/C=C/c1ccc(O)c(O)c1/C(=C\\c1ccc(O)c(O)c1)C(=O)O[C@H](Cc1ccc(O)c(O)c1)C(=O)O)O[C@H](Cc1ccc(O)c(O)c1)C(=O)O", "note": "[SAE, salvianolic acid E]", "values": [
      {"measurement": "SAE concentration at which senescent cells begin to be eliminated", "setting": "[1]; SA-β-Gal staining", "value": 200, "unit": "µM"},
      {"measurement": "concentration at which the killing effect on senescent cells reaches a threshold", "setting": "[1]; SA-β-Gal staining", "value": 2000, "unit": "µM"},
      {"measurement": "killing effect on senescent cells", "setting": "[1]; SAE increased to 3000 μM", "value": "not further enhanced"},
      {"measurement": "inhibition of SASP development at lower or higher concentrations", "setting": "[2]; compared with 50 μM", "value": "less effective"},
      {"measurement": "working concentration that inhibited SASP development with the greatest efficiency", "setting": "[2]; concentration gradient, senescent PSC27", "value": 50, "unit": "µM"},
      {"measurement": "change of proliferating cells", "setting": "[3]", "value": "not obvious"},
      {"measurement": "proportion of apoptosis of senescent PSC27 cells", "setting": "[3]", "value": "significantly increased"},
      {"measurement": "viability of senescent PSC27 cells", "setting": "[3]", "value": "significantly reduced"}
    ]}
  ]
}
